Source: patent publication US20100221763A1, “Specific Acceptors for Transferases to Saccharides and Method for Obtaining and Using Same” (Health Research, Inc, priority 2005, published 2010)
Where “and” joins values, the source holds several entries; their conditions need not be identical. Identical values can stand only once.

Assays:
[1] = biological target: T1, Rat recombinant α2,6(N)ST (Rattus norvegicus, UniProt P13721); experiment: Sialyltransferase assay with cloned α2,6(N)ST; type: biochemical; conditions: for Sialyltransferase activity (%) Cloned α2,6(N)ST: Table I, acceptor 7.5 mM, 100% = 43500 CPM (Galβ1,4GlcNAcβ-O—Al); for Cloned Sialyltransferase Activities α2,6(N)ST %: Table III, compound 7.5 mM, 100% = 30440 CPM (Galβ1,4GlcNAcβ1,6(3-O-MeGalβ1,3)GalNAcα-O-Bn)
T1 construct: purchased Calbiochem
T1 sequence (P13721 1-403): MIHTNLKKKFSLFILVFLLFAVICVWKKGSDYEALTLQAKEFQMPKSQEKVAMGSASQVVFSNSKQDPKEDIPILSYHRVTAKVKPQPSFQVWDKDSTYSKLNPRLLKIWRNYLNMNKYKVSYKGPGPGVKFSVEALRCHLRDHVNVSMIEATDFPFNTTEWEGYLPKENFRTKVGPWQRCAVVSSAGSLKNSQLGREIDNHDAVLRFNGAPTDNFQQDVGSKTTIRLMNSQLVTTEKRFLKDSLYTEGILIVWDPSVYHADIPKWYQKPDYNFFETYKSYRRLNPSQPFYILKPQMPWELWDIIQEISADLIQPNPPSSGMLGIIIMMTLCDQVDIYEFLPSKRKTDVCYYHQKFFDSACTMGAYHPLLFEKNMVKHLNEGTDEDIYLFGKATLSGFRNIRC
Description: (§1) Rat recombinant α2,3(O)ST, α2,3(N)ST and α2,6(N)ST were purchased from Calbiochem and stored at either −20° C. or −70° C. as recommended by the supplier. […] 10 μl aliquots of the diluted enzymes were used in the assays run in duplicate.
(§2) The incubation mixtures run in duplicate contained 0.1M NaCacodylate buffer pH6.0, the acceptor (typically at 7.5 mM, or as indicated in some experiments), CMP-[9 ^3H] NeuAc (typically 0.2 μci; 20 μci/nmol or as indicated in some experiments) and the enzyme in a total volume of 20 μl. The control incubation mixtures contained everything except the acceptor. Incubation was carried out for 2 h at 37° C. The enzymatic transfer of [9-^3H] NeuAc to a typical acceptor was linear for 2 h and less than 30% CMP-[9-^3H] NeuAc was utilized. Chromatography, using either Dowex-1-Formate, Sep-Pak C18 or Biogel P2, was applied to separate radioactive product from un-reacted [9-^3H] NeuAc as described below.
(§3) The radioactive products from neutral allyl and methyl glycosides as well as non-glycosides were measured by fractionation on Dowex-1-Formate (Bio-Rad: AG-1X8; 200-400 mesh; format form) as follows: The incubation mixture was diluted with 1.0 ml water and passed through AG-1-formate column (1.0 ml bed volume in a Pasteur pipet which had been washed with 5 ml of 2M Formic acid followed by 10 ml water). The column was washed twice with 1.0 ml water after the entry of the sample and then eluted with 3.0 ml of 0.1M NaCl. The radioactivity present in water and 0.1M NaCl eluates were measured separately using 3a70 scintillation cocktail (Research Products International, Mount Prospect, Ill.) and a Beckman LS6500 scintillation counter. The CPM values were corrected by subtracting the blank CPM. Any radioactivity present in the water eluate (as noticed in the case of some methylglycosides) was added to the corresponding CPM value of 0.1M NaCl eluate. The radioactive products from sulfated and/or sialylated methylglycosides were also measured by the above procedure, only the elution of the AG-1-Formate column was continued further with 3.0 ml of 0.2M NaCl for achieving a complete elution of the radioactive product, a correction being made as before by subtracting the corresponding blank values.
(§4) The radioactive products from benzylglycosides and monosialylated benzylglycosides were measured by hydrophobic chromatography on Sep-Pak C18 cartridge (Waters, Milford, Mass.) and eluting the product with 3.0 ml methanol (30). The radioactivity was determined by liquid scintillation as above.
(§5) For such work, a Biogel P2 column (Fine Mesh; 1.0×116.0 cm) was used with 0.1M pyridine acetate pH5.4 as the eluent at room temperature. The effluent fractions were monitored for radioactivity and the first peak containing radioactivity was collected, lyophilized to dryness, dissolved in 200 μl of water and stored frozen at −20° C. for thin layer chromatography (TLC) and other experimentation.

[2] = biological target: T2, Rat recombinant α2,3(N)ST (Rattus norvegicus, UniProt Q02734); experiment: Sialyltransferase assay with cloned α2,3(N)ST; type: biochemical; conditions: for Cloned Sialyltransferase Activities α2,3(N) ST %: Table III, compound 7.5 mM, 100% = 38140 CPM (Galβ1,4GlcNAcβ1,6(3-O-MeGalβ1,3)GalNAcα-O-Bn); for Sialyltransferase activity (%) Cloned α2,3(N)ST: Table I, acceptor 7.5 mM, 100% = 29520 CPM (Galβ1,4GlcNAcβ-O—Al)
T2 construct: purchased Calbiochem
T2 sequence (Q02734 29-374 limits assumed): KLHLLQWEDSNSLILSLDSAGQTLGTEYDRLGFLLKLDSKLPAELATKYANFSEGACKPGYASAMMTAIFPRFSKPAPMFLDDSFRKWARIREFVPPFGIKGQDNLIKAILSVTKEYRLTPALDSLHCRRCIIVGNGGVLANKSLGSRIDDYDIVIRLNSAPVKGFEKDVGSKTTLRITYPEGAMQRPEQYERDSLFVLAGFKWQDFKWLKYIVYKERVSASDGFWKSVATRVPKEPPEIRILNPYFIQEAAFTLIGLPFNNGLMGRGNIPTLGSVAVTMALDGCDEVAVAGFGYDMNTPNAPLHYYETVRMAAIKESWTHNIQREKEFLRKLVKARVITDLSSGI
Description: as §1, §2, §3, §4, §5

LNCaP α2,3(O)ST = experiment: Sialyltransferase assay with LNCaP cell extract; type: biochemical, human; conditions: Table III; compound 7.5 mM; 100% = 30100 CPM (3-O-MeGalβ1,4GlcNAcβ1,6(Galβ1,3)GalNAcα-O-Bn)
Description: The prostate carcinoma cell line, LNCaP, was grown in RPMI 1640 supplemented with 10% fetal bovine serum and antibiotics (penicillin, streptomycin and amphotericin B) under conditions recommended by American Type Culture Collection (Manassas, Va.). The cells were homogenized with 0.1M Tris-Maleate pH6.3 containing 2% Triton X-100 using a Dounce all glass hand-operated homogenizer. The homogenate was centrifuged at 16,000 g for 1 h at 4° C. Protein concentration in supernatant was measured using the BCA assay (Pierce Biotech, Inc., Rockford, Ill.), with BSA as the standard. The supernatant was adjusted to 5 mg protein/ml by adding the necessary amount of extraction buffer and then stored frozen at −20° C. until use. 10 μl aliquot of this extract was used in assays run in duplicate.
as §2, §3, §4, §5

[3] = biological target: T3, Rat recombinant α2,3(O)ST (Rattus norvegicus, UniProt Q11205); experiment: Sialyltransferase assay with cloned α2,3(O)ST; type: biochemical; conditions: for Cloned Sialyltransferase Activities α2,3(O) ST %: Table III, compound 7.5 mM, 100% = 39200 CPM (3-O-MeGalβ1,4GlcNAcβ1,6(Galβ1,3)GalNAcα-O-Bn); for Sialyltransferase activity (%) Cloned α2,3(O)ST: Table I, acceptor 7.5 mM, 100% = 40560 CPM (3-O-MeGalβ1,4GlcNAcβ1,6(Galβ1,3)GalNAcα-O-Bn)
T3 construct: purchased Calbiochem
T3 sequence (Q11205 1-350): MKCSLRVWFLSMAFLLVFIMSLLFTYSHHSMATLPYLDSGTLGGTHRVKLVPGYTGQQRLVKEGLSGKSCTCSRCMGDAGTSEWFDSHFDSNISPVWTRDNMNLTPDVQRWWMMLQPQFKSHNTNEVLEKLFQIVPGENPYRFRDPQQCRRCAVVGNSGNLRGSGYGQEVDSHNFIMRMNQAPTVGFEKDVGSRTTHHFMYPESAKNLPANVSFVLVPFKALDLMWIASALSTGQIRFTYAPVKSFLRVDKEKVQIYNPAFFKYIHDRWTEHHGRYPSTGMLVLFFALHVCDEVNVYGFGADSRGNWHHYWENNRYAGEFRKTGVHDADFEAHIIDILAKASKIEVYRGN
Description: as §1, §2, §3, §4, §5

Row | Compound | Sialyltransferase activity (%) Cloned α2,6(N)ST [1] [%] | Sialyltransferase activity (%) Cloned α2,3(N)ST [2] | Sialyltransferase activity (%) Cloned α2,3(O)ST [3] | also measured
1 | CO[C@H]1[C@H](O[C@H]2[C@H](O)[C@@H](CO)O[C@@H](OCc3ccccc3)[C@@H]2NC(C)=O)O[C@H](CO)[C@H](O)[C@@H]1O [2-O-MeGalβ1,3GlcNAcβ-O-Bn] | 0 |  |  | 
2 | CC(=O)N[C@H]1[C@H](OC[C@H]2O[C@H](OCc3ccccc3)[C@H](NC(C)=O)[C@@H](O[C@@H]3O[C@H](CO)[C@H](O)[C@H](O)[C@H]3O)[C@H]2O)O[C@H](CO)[C@@H](O[C@@H]2O[C@H](CO)[C@H](O)[C@H](F)[C@H]2O)[C@@H]1O [3-FGalβ1,4GlcNAcβ1,6(Galβ1,3)GalNAcα-O-Bn] |  |  |  | Cloned Sialyltransferase Activities α2,6(N)ST % [1]: 11.3%; Cloned Sialyltransferase Activities α2,3(N) ST % [2]: 7.2%; LNCaPα2,3(O)ST % (LNCaP α2,3(O)ST): 91.5%; Cloned Sialyltransferase Activities α2,3(O) ST % [3]: 102.9^12%
3 | CO[C@H]1[C@@H](O)[C@@H](CO)O[C@@H](O[C@H]2[C@H](O)[C@@H](NC(C)=O)C(O)O[C@@H]2CO)[C@@H]1O (stereo partly drawn) [3-O-MeGalβ1,4GlcNAc] | 8.7 | 1.4% | 3.6% | 
4 | CC(=O)N[C@H]1[C@H](OC[C@H]2O[C@H](OCc3ccccc3)[C@H](NC(C)=O)[C@@H](O[C@@H]3O[C@H](CO)[C@H](O)[C@H](O)[C@H]3O)[C@H]2O)O[C@H](CO)[C@@H](O[C@@H]2O[C@H](CO)[C@H](F)[C@H](O)[C@H]2O)[C@@H]1O [4-FGalβ1,4GlcNAcβ1,6(Galβ1,3)GalNAcα-O-Bn] |  |  |  | Cloned Sialyltransferase Activities α2,6(N)ST % [1]: 2.7%; Cloned Sialyltransferase Activities α2,3(N) ST % [2]: 7.9%; Cloned Sialyltransferase Activities α2,3(O) ST % [3]: 102.1%
5 | CO[C@H]1O[C@H](CO[C@@H]2O[C@H](COS(=O)(=O)O)[C@@H](O[C@@H]3O[C@H](CO)[C@H](O)[C@H](O)[C@H]3O)[C@H](O[C@@H]3O[C@@H](C)[C@@H](O)[C@@H](O)[C@@H]3O)[C@H]2NC(C)=O)[C@H](O)[C@H](O[C@@H]2O[C@H](CO)[C@H](O)[C@H](O[C@]3(C(=O)O)C[C@H](O)[C@@H](NC(C)=O)[C@H]([C@H](O)[C@H](O)CO)O3)[C@H]2O)[C@H]1NC(C)=O [Galβ1,4(6-O-Sulfo)(Fucα1,3)GlcNAcβ1,6(NeuAcα2,3Galβ1,3)GalNAcα-O-Me] | 0 | 1.7% |  | 
6 | CO[C@H]1O[C@H](CO[C@@H]2O[C@H](COS(=O)(=O)O)[C@@H](O[C@@H]3O[C@H](CO)[C@H](O)[C@H](O)[C@H]3O)[C@H](O)[C@H]2NC(C)=O)[C@H](O)[C@H](O[C@@H]2O[C@H](CO)[C@H](O)[C@H](O[C@]3(C(=O)O)C[C@H](O)[C@@H](NC(C)=O)[C@H]([C@H](O)[C@H](O)CO)O3)[C@H]2O)[C@H]1NC(C)=O [Galβ1,4(6-O-Sulfo)GlcNAcβ1,6(NeuAcα2,3Galβ1,3)GalNAcα-O-Me] | 0.9 | 50.8% and 50.8^22% |  | Sialyltransferase activity (%) Cloned α2,3(N)ST ([2]; listed as Galβ1,4(6-O-Sulfo)GlcNAcβ1,6(NeuAcα2,3Galβ1,3)GalNAcα-): 50.8%
7 | CO[C@H]1O[C@H](CO[C@@H]2O[C@H](CO)[C@@H](O[C@@H]3O[C@H](CO)[C@H](O)[C@H](O)[C@H]3O)[C@H](O[C@@H]3O[C@@H](C)[C@@H](O)[C@@H](O)[C@@H]3O)[C@H]2NC(C)=O)[C@H](O)[C@H](O[C@@H]2O[C@H](CO)[C@H](O)[C@H](O)[C@H]2O)[C@H]1NC(C)=O [Galβ1,4(Fucα1,3)GlcNAcβ1,6(Galβ1,3)GalNAcα-O-Me] | 7.1 | 19.0% | 133.4% | 
8 | CC(=O)N[C@H]1[C@H](OC[C@H]2O[C@H](OCc3ccccc3)[C@H](NC(C)=O)[C@@H](O[C@@H]3O[C@H](CO)[C@H](O)[C@H](O[C@@]4(C(=O)O)C[C@H](O)[C@@H](NC(C)=O)[C@H]([C@H](O)[C@H](O)CO)O4)[C@H]3O)[C@H]2O)O[C@H](CO)[C@@H](O[C@@H]2O[C@H](CO)[C@H](O)[C@H](O)[C@H]2O)[C@@H]1O[C@@H]1O[C@@H](C)[C@@H](O)[C@@H](O)[C@@H]1O [Galβ1,4(Fucα1,3)GlcNAcβ1,6(NeuAcα2,3Galβ1,3)GalNAcα-O-Bn] |  | 27.1% |  | 
9 | CC(=O)N[C@H]1[C@H](OC[C@H]2O[C@H](OCc3ccccc3)[C@H](NC(C)=O)[C@@H](O[C@@H]3O[C@H](CO)[C@H](O)[C@H](O)[C@H]3O)[C@H]2O)O[C@H](CO)[C@@H](O[C@@H]2O[C@H](CO)[C@H](O)[C@H](O)[C@H]2O)[C@@H]1O [Galβ1,4GlcNAcβ1,6(Galβ1,3)GalNAcα-O-Bn] | 93.3 | 100.7% | 94.4^4% | α2,6(N)ST activity at varying acceptor concentration (FIG. 3A) ([1]; lowest concentration tested, 0.15 mM): considerable activity
